Test results reported in US20210395256A1, “TYROSINE KINASE INHIBITORS, COMPOSITIONS AND METHODS THERE OF” (Betta Pharmaceuticals Co., Ltd., priority 2018, published 2021).
Where two headings read alike, the source gives them in different places.

Key:
NTRK1-G595R = NTRK1-G595R (Homo sapiens, UniProt P04629, G595R); assay: NTRK1-G595R cell proliferation assay (Table 13); format: cell-based
TrkA kinase = TrkA kinase (Homo sapiens, UniProt P04629); assay: TrkA kinase assay (mobility shift assay); format: biochemical; settings: read-out: Trk A Kinase IC50
Sequence of TrkA kinase (P04629 33-796): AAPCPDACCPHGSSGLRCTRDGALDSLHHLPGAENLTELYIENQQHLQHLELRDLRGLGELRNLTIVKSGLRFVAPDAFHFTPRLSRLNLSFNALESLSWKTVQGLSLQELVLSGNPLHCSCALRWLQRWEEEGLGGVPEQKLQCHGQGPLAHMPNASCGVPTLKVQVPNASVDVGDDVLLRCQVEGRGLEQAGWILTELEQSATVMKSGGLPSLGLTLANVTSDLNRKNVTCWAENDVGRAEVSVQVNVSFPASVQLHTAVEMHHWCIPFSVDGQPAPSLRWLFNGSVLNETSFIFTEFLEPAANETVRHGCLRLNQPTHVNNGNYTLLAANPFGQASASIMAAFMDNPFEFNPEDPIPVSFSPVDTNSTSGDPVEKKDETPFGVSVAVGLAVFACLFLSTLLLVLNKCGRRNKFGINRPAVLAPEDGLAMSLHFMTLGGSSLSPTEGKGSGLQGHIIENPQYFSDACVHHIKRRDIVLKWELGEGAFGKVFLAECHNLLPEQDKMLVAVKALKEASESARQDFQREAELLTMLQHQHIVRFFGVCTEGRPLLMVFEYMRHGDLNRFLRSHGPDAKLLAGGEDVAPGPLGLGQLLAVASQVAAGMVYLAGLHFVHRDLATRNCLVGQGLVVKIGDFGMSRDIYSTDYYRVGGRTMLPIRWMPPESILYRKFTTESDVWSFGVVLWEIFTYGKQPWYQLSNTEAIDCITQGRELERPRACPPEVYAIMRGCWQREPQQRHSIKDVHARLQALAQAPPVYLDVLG
Outline: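 Ten-point compound series was preincubated 10 min at room temperature with TrkA, then FAM-peptide plus ATP added in HEPES pH 7.5/Brij-35 buffer and reacted at 28 °C before EDTA quench.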

Ba/F3-ETV6-NTRK3 = target: T1, Ba/F3-ETV6-NTRK3 (Homo sapiens, UniProt Q16288); assay: Ba/F3-ETV6-NTRK3 cells proliferation assay; format: cell-based; settings: 72 h, CellTiter Glo
T1 construct: Ba/F3 cells with TPM3-NTRK1 or ETV6-NTRK3 fusion mutation gene stably overexpressed named Ba/F3-TPM3-NTRK1 and Ba/F3-ETV6-NTRK3; fused on or other part: P41212 (Transcription factor ETV6)
T1 sequence (Q16288 whole entry, the tested form may be a part): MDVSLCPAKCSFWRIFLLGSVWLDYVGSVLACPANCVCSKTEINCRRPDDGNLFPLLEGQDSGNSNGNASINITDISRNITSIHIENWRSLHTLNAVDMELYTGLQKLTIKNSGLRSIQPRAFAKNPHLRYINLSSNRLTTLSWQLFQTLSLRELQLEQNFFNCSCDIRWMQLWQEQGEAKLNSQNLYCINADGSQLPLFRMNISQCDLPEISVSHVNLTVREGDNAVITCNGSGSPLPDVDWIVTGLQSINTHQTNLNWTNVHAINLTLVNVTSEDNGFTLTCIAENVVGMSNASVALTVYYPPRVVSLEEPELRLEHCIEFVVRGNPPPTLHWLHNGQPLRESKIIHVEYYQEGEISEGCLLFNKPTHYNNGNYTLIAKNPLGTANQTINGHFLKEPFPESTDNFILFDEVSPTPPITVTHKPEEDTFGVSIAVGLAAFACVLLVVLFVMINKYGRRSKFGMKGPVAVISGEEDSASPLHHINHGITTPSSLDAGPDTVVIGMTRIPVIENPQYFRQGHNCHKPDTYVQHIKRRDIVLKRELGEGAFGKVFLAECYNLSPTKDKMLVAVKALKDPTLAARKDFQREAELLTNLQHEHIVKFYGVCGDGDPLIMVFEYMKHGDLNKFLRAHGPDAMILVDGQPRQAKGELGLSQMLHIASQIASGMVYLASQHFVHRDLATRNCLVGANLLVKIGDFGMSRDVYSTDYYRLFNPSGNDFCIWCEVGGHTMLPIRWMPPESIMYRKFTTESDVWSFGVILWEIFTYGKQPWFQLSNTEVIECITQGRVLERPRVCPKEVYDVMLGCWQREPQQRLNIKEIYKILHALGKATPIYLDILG
Description: (§1) Example 202 Ba/F3-TPM3-NTRK1 and Ba/F3-ETV6-NTRK3 cells proliferation assay
(§2) Cell line: Ba/F3 cells with TPM3-NTRK1 or ETV6-NTRK3 fusion mutation gene stably overexpressed named Ba/F3-TPM3-NTRK1 and Ba/F3-ETV6-NTRK3.
(§3) RPMI 1640 and 10% FBS and 1% PS and 2 ug/mL puromycin.
(§4) b) Collect cell to a 15 mL centrifuged tube, centrifuge at 1000 rpm for 5 min. Discard the supernatant, count, and make the cell density at 1.49×10^4 cells/mL, then place it in a 37° C., 5% CO2 incubator.
(§5) a) The test compound (20 mM stock solution) was diluted to 60 μM with 100% DMSO as starting concentration then 3-fold serial diluted with “9+0” concentrations. in a 96-well dilution plate (Thermo, Cat. No. 249944);
(§6) b) The above compound solution was diluted 1:20 times with culture medium to prepare a 10 fold working solution;
(§7) a) Take cells in log phase growth, centrifuge at 1000 rpm for 5 min, then resuspend the cells with culture medium, then count cells;
(§8) b) Cells were seeded to 96-well cell culture plate with density at 2000 cells/well;
(§9) a) Compounds prepared at step 2 were added to cell plate with 15 μL per well, the final concentrations were 300, 100, 33.33, 11.11, 3.70, 1.23, 0.41, 0.14, 0.05 and 0 nM, and the final concentration of DMSO was 0.5%. The blank control well was a culture medium (0.5% DMSO);
(§10) c) The cells were incubated for an additional 72 h in the incubator.
(§11) a) Remove the 96-well cell culture plate and add 50 μl of CTG reagent (CellTiter Glo kit, promega, Cat #G7573).
(§12) b) Plate was shaked for 2 min and then let it cool for 30 min at room temperature.
(§13) c) The Luminescence signal value was read using a PerkinElmer reader.
(§14) Experimental Data Analysis
(§15) Data were analyzed using GraphPad Prism 6.0 software to obtain a fitted curve of compound activity.
(§16) Fit the Compound IC50 from non-linear regression equation:
(§17) Y=Bottom+(Top-Bottom)/(1+10^((Log IC50-X)×HillSlope));
(§18) X: The log of the concentration of the compound; Y: Luminescence value.

Ba/F3-TPM3-NTRK1 = target: T2, Ba/F3-TPM3-NTRK1 (Homo sapiens, UniProt P04629); assay: Ba/F3-TPM3-NTRK1 cells proliferation assay; format: cell-based; settings: 72 h, CellTiter Glo
T2 construct: expressed in transfected cells; host or cells: Ba/F3; the other entry of the earlier key: TPM3 (P06753, Tropomyosin alpha-3 chain)
T2 sequence (P04629 510-796 limits assumed): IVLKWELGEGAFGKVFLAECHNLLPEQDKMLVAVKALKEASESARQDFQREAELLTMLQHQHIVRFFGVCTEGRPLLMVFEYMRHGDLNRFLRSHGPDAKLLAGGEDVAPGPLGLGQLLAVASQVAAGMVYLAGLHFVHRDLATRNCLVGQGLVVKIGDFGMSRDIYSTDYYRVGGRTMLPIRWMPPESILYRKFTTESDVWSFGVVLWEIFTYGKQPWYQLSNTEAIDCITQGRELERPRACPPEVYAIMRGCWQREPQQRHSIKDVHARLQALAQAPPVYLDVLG
Description: as §1, §2, §3, §4, §5, §6, §7, §8, §9, §10, §11, §12, §13, §14, §15, §16, §17, §18

[1] = Liver microsomes metabolic stability assay, mouse; format: in vitro ADME; settings: male, mouse liver microsomes 0.5 mg/mL, 37° C.; for half-life at 2 μM: read-out: t1/2 Mouse
Outline: (§19)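 Pooled human, male rat or male mouse liver microsomes (0.5 mg/mL final) incubated at 37° C with 2 μM compound, with or without 1 mM NADPH. Samples at 0-60 min quenched in cold acetonitrile and analyzed by LC-MS/MS in duplicate. t1/2 derived from ln(% remaining) vs time slope, converted to CLint (μL/min/mg).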

[2] = Liver microsomes metabolic stability assay, human; format: in vitro ADME; settings: human liver microsomes 0.5 mg/mL, 37° C.; for half-life at 2 μM: read-out: t1/2 Human
Outline: as §19

[3] = Liver microsomes metabolic stability assay, rat; format: in vitro ADME; settings: male, rat liver microsomes 0.5 mg/mL, 37° C.; for half-life at 2 μM: read-out: t1/2 Rat
Outline: as §19

Sequence of NTRK1-G595R (P04629 33-796 G595R): as the sequence (P04629 33-796) above, with G563R counted along it

IC50 (NTRK1-G595R) [nM]	IC50 (TrkA kinase; numeric values) [nM]	IC50 (Ba/F3-ETV6-NTRK3) [nM]	IC50 (Ba/F3-TPM3-NTRK1) [nM]	microsomal CLint at 2 μM [1] [µL/min/mg]	half-life at 2 μM [1] [min]	microsomal CLint at 2 μM [2] [µL/min/mg]	half-life at 2 μM [2] [min]	microsomal CLint at 2 μM [3] [µL/min/mg]	half-life at 2 μM [3] [min]	IC50 (TrkA kinase; class symbols) [nM]	SMILES
183	4.8	5.65	3.92								N#Cc1cc2nc(-c3cnn4ccc(N5CCC[C@@H]5c5cc(F)ccc5F)nc34)[nH]c2cc1OC(F)F [Compound 156, (R)-6-(difluoromethoxy)-2-(5-(2-(2,5-difluorophenyl)pyrrolidin-1-yl)pyrazolo[1,5-a]pyrimidin-3-yl)-1H-benzo[d]imidazole-5-carbonitrile]
46.6	1.1	2.21	1.38	16.4	84.5	17.2	80.6	15	92.4		COc1cc2nc(-c3cnn4ccc(N5CCC[C@@H]5c5cc(F)ccc5F)nc34)[nH]c2cc1C#N [Compound 125, (R)-2-(5-(2-(2,5-difluorophenyl)pyrrolidin-1-yl)pyrazolo[1,5-a]pyrimidin-3-yl)-5-methoxy-1H-benzo[d]imidazole-6-carbonitrile]
165	0.4		0.28	103	13.5	49.4	28.1	105	13.2		COCCOc1cc2nc(-c3cnn4ccc(N5CCC[C@@H]5c5cc(F)ccc5F)nc34)[nH]c2cc1OCCOC [Compound 101, (R)-3-(5,6-bis(2-methoxyethoxy)-1H-benzo[d]imidazol-2-yl)-5-(2-(2,5-difluorophenyl)pyrrolidin-1-yl)pyrazolo[1,5-a]pyrimidine]
216	1	2.63	3.41	71.2	19.5	45.4	30.5	58.2	23.8		C[S+]([O-])c1cc2nc(-c3cnn4ccc(N5CCC[C@@H]5c5cc(F)ccc5F)nc34)[nH]c2cc1C#N (stereo partly drawn) [Compound 171, 2-(5-((R)-2-(2,5-difluorophenyl)pyrrolidin-1-yl)pyrazolo[1,5-a]pyrimidin-3-yl)-5-(methylsulfinyl)-1H-benzo[d]imidazole-6-carbonitrile]
81.8	1.5	1.56	2.19	14	99	1.2	1160	3.6	385		N#Cc1cc2nc(-c3cnn4ccc(N5CCC[C@@H]5c5cc(F)ccc5F)nc34)[nH]c2cc1C#N [Compound 148, (R)-2-(5-(2-(2,5-difluorophenyl)pyrrolidin-1-yl)pyrazolo[1,5-a]pyrimidin-3-yl)-1H-benzo[d]imidazole-5,6-dicarbonitrile]
117			1.9	39	35.5	94.1	14.7	60.8	22.8	≤ 10	N#Cc1cc2[nH]c(-c3cnn4ccc(N5CCC[C@@H]5c5cc(F)ccc5F)nc34)nc2cc1F [Compound 123, (R)-2-(5-(2-(2,5-difluorophenyl)pyrrolidin-1-yl)pyrazolo[1,5-a]pyrimidin-3-yl)-5-fluoro-1H-benzo[d]imidazole-6-carbonitrile]
15.6	0.43	2.05	1.06	105	13.2	56.2	24.7	92.4	15		CNC(=O)c1cc2nc(-c3cnn4ccc(N5CCC[C@@H]5c5cc(F)ccc5F)nc34)[nH]c2cc1OC [Compound 160, (R)-2-(5-(2-(2,5-difluorophenyl)pyrrolidin-1-yl)pyrazolo[1,5-a]pyrimidin-3-yl)-6-methoxy-N-methyl-1H-benzo[d]imidazole-5-carboxamide]
18.2	0.6	0.53	1.2								COC(=O)c1cc2nc(-c3cnn4ccc(N5CCC[C@@H]5c5cc(F)ccc5F)nc34)[nH]c2cc1OC [Compound 155, methyl (R)-2-(5-(2-(2,5-difluorophenyl)pyrrolidin-1-yl)pyrazolo[1,5-a]pyrimidin-3-yl)-6-methoxy-1H-benzo[d]imidazole-5-carboxylate]
257	0.6	2.49	2.08	32.4	42.8	41.6	33.3	44.8	30.9		CS(=O)(=O)c1cc2nc(-c3cnn4ccc(N5CCC[C@@H]5c5cc(F)ccc5F)nc34)[nH]c2cc1C#N [Compound 172, (R)-2-(5-(2-(2,5-difluorophenyl)pyrrolidin-1-yl)pyrazolo[1,5-a]pyrimidin-3-yl)-5-(methylsulfonyl)-1H-benzo[d]imidazole-6-carbonitrile]
103			2.91	102	13.5	55.8	24.8	78.4	17.7	≤ 10	COCCOc1cc2[nH]c(-c3cnn4ccc(N5CCC[C@@H]5c5cc(F)ccc5F)nc34)nc2cc1C#N [Compound 169, (R)-2-(5-(2-(2,5-difluorophenyl)pyrrolidin-1-yl)pyrazolo[1,5-a]pyrimidin-3-yl)-6-(2-methoxyethoxy)-1H-benzo[d]imidazole-5-carbonitrile]
